Positions of bridges follow the written chain, without caps; N, C: chain ends. Residues, ends and D or L forms follow the SMILES beside them. *: point of attachment. Biotin = O=C1N[C@H]2[C@H](CS[C@H]2CCCCC(=O)*)N1
Tests used:
[1] = target: human IGF-1 receptor (HIGF-1R) (Homo sapiens, UniProt P08069); test: 125I-IGF-1 competition binding assay on solubilised purified receptor
IGF-1R [2] = target: T1, IGF-1R (Homo sapiens, UniProt P08069); test: Phage ELISA, competition of phage binding by soluble synthetic peptides, IGF-1R-coated wells; settings: IGF Receptor, H2 Phage
T1 construct: Soluble IGF-1R was obtained from R&D Systems; purchased R&D Systems 391-GR/CF
Protocol: (§2) Peptide Competition. […] Twenty microliters of the stock synthetic-peptide solution was added to Row A. A series of 20 µl into 100 µl dilutions were performed until Row G. Twenty microliters were discarded from Row G to maintain 100 µl per well. Row H was reserved as no peptide wells. […] The volume was maintained by the addition of 18 µl of the phage solution to Row A.
(§3) Phage ELISA. […] The wells were blocked with 200 µl of 2% (w/v) Carnation non-fat dry milk in PBS for 1.5 h at RT. Phage were added at 100 µl per well. Peptides were added as noted below and allowed to incubate at RT for 3 h. The plates were washed 3X with PBST. A solution of 1:3000 diluted HRP:Anti-M13 Conjugate at 100 µl per well of was added for 1 h. Following a repeat of the washing, 100 µl of ABTS was added for 15-30 min. The OD405 was measured using a SpectraMax 340 Microplate Spectrophotometer.
(§4) Peptide Competition. Peptide Competition Curves were produced during the phage ELISA across rows in triplicate. The stock synthetic peptide solution was added to Column 12 so that the total volume totaled 150 µl (additional phage solution was added when necessary). A serial dilution was made by transferring 50 µl from Column 12 into 100 µl in Column 11, 50 µl from Column 11 into 100 µl in Column 10, and continuing the serial dilution until Column 2. Fifty microliters were discarded from Column 2 to maintain 100 µl per well. Column 1 was reserved as no peptide wells.
(§5) A p53-like peptide that binds to MDM2 was used as a negative control.

IGF-1R [3] = target: T1, IGF-1R; test: Heterogeneous time-resolved fluorescence (Eu) competitive binding assay on IGF-1R
Protocol: The TRFD assay format is well established, sensitive, and quantitative (Tompkins et al., 1993).
(§1) In these assays, soluble IGF-1 receptor is coated on the surface of microtiter wells, blocked by PBS containing milk and BSA, and then incubated with biotinylated peptide or rVab. Unbound bP is then washed away and saEu is added to complex with receptor-bound bP. Upon addition of the acidic enhancement solution, the bound europium is released as free Eu^+3 which rapidly forms a highly fluorescent and stable complex with components of the enhancement solution.
The plates were blocked with PBS containing 2% non-fat milk and 0.05% BSA for 2 h at RT, followed by three PBS washes. […] The plates were then washed 5 times with TTBS (TBS buffer containing Tween-20; Wallac) and tapped dry.

IR [4] = target: T2, IR (Homo sapiens, UniProt P06213); test: Phage ELISA, competition of phage binding by soluble synthetic peptides, IR-coated wells; settings: Insulin Receptor
T2 construct: composed of the extracellular domains of both the α and β chains of the natural receptor; made in house; background b13 names human embryonic kidney 293 cells for the Bass et al. construct
Protocol: as §2, §3, §4, §5

[5] = Precipitate in diluted peptide stock prior to adding to the fat cell assay; solubility under assay conditions; assay type: physicochemical; settings: diluted stock prior to adding to assay
Insulin receptor [6] = target: T3, Insulin receptor (Homo sapiens, UniProt P06213); test: Heterogeneous time-resolved fluorescence assay (TRFA) on insulin receptor; assay type: binding
T3 construct: composed of the extracellular domains of both the α and β chains of the natural receptor; made in house; background b13 names human embryonic kidney 293 cells for the Bass et al. construct
Protocol: In this assay, saEu forms a ternary complex with bP and IR (i.e., IR:bP:saEu complex). The TRFD assay format is well established, sensitive, and quantitative (Tompkins et al., 1993). The assay can use a single-chain antibody or a biotinylated peptide.
as §1, with “IR” for “IGF-1 receptor”, “a solution of 0.5% BSA and 2% non-fat” for “PBS containing”, “in PBS,” for “and BSA,”, “Eu^3+” for “Eu^+3”, “solution. The IR:bP bound saEu is then converted into its highly fluorescent state and detected by a detector such as Wallac Victor II (EG&G Wallac, Inc.)” for “solution.”
• a. Heterogeneous Time-Resolved Fluorescence Assay. […] The plates were blocked with TBS containing 2% milk and 0.5% BSA for 1 h at RT followed by three TBS washes. […] After TBS wash, europium-labeled streptavidin at 1 µg/ml in assay buffer (100 mM Tris-HCl, pH 7.8; 150 mM NaCl; 0.5% BSA; 0.05% bovine Ig; 0.05% NaN3; 0.01% Tween-20) was added to the plates and incubated for 1 h. To test binding of rVab antibodies to IR, Eu-labeled rVab antibodies in assay buffer were added to the plates and incubated for 2 h to overnight. After incubation with Eu-labeled streptavidin (for peptide test) or europium-labeled rVabs, the plates were washed 5 times with Tris-buffered saline (pH 7.5) containing 0.1 % Tween-20 (TTBS) and tapped dry. Sixty microliters of EG&G Wallac enhancement solution (100 mM acetone-potassium hydrogen pthalate, pH 3.2; […] 2-naphtyltrifluoroacetate; […] tri(n-octyl)-phosphine oxide; 0.1 % Triton X-100) was added into each well, and the plates were placed onto a shaker for 20 min at RT. […] Homogeneous Time-Resolved Fluorescence Assay. […] For library screening, 20 µM of small organic molecules in 2 % DMSO are included in the mixture.

IR [7] = target: T2, IR; test: Phage ELISA, binding of phage-displayed peptides to IR
Protocol: Amino acid sequences comprising the motif of Formulas 1 through 10. […] Fifty microliters of this solution was added to an appropriate number of wells in a 96-well microtiter plate (MaxiSorp plates, Nunc) and incubated overnight at 4°C. […] To isolate specific binders, each library was panned against a soluble form of the human IR. This IR is composed of the extracellular domains of both the α and β chains of the natural receptor, as well as the constant domain from immunoglobulin Fc, retaining the β-α-α-β structure described above. Because the IR is expressed in a eukaryotic system, disulfide bond formation and glycosylation patterns should mimic the wild-type receptor. The details of this recombinant protein construct are described in Bass et al. (1996). Phage ELISA. […] The wells were blocked with 200 µl of MPBS for 1.5 h at RT. […] Peptides were added as noted below and allowed to incubate at RT for 3 h. The plates were washed 3 times with PBST. A solution of 1:3000 diluted HRP:Anti-M13 conjugate at 100 µl per well of was added for 1 h. Following a repeat of the washing, 100 µl of ABTS was added for 15-30 min. […] Phage ELISA. […] Peptides were added as noted below and allowed to incubate at RT for 3 h. […] A solution of 1:3000 diluted HRP:Anti-M13 Conjugate at 100 µl per well of was added for 1 h. Following a repeat of the washing, 100 µl of ABTS was added for 15-30 min. The OD405 was measured using a SpectraMax 340 Microplate Spectrophotometer.

adipocytes = test: 3H-glucose uptake into adipocytes (fat cell assay, FFC); assay type: cell-based, Mouse; settings: Subjective ranking; basal and sub maximal insulin; includes series A
IGF-1R [8] = target: T1, IGF-1R; test: IGF-1R peptide assay, competition dissociation of 20E2; assay type: binding; settings: peptides 100 µM, IGF-1 30 µM
Protocol: • a. Preparation of the Assay Mix. […] This mixture was allowed to pre-incubate. • b. 20 µl of Competitor and Buffer were added to a 96-well microtiter plate (Costar Cat. #3912). • c. […] After the original 99 repeat readings were taken, periodic readings were taken until equilibrium had been established. NOTE: Different conditions can be used for these experiments. For example, a 1.1X concentration of assay mix can be initially made. Then first add 10 µl of Competitor and Buffer to the microtiter plate followed by 90 µl of the Assay Mix. • f.

Insulin receptor [9] = target: T3, Insulin receptor; test: BIAcore competition: IR pre-incubated with test substance, injected over immobilised insulin; assay type: binding; settings: peptide about 40 µM, IR 450 nM; IR alone 128 RU
Protocol: Flowcell-1 was used for background binding to correct for any non-specific binding. […] The surface was regenerated with 25 mM NaOH. […] Thus, the system was validated for competition studies. […] The amino acid sequences referred to in the tables are identified in Figures 47 and 48, except the 447 and 2A9 sequences, which are shown below. TABLE 9: BIAcore Results-Fusion Proteins Compete for Binding to IR

[10] = target: T4, purified insulin receptor (Homo sapiens, UniProt P06213); test: Holoenzyme phosphorylation assay (IR autophosphorylation, Western blot); assay type: biochemical
T4 construct: host or cells: 'Wheat Germ Agglutinin Expression System' (so in the source)
Protocol: Alternatively, IR autophosphorylation was determined using a holoenzyme phosphorylation assay. […] The reaction was stopped by adding 50 µl of gel loading buffer containing β-mercaptoethanol (Bio-Rad Laboratories, Inc., Hercules, CA). The samples were run on 4-12% SDS-polyacrylamide gels. Western Blot analysis was performed by transferring the proteins onto nitrocellulose membrane. The membrane was blocked in PBS containing 3% milk overnight. The membrane was incubated with anti-phosphotyrosine 4G10 HRP labeled antibody (Upstate Biotechnology) for 2 h. Protein bands were visualized using SuperSignal West Dura Extended Duration Substrate Chemiluminescence Detection System (Pierce Chemical Co.).

IGF-1R [11] = target: T1, IGF-1R; test: Phage ELISA, binding of phage-displayed peptides to IGF-1R; settings: 405 nm
Protocol: Figures 1A-10G. Amino acid sequences comprising the motif of Formulas 1 through 10. […] One hundred microliters of this solution was added to an appropriate number of wells in a 96-well microtiter plate (MaxiSorp plates, Nunc) and incubated overnight at 4°C. […] Subsequent steps are the same for pooled and clonal phage. […] Phage resuspended in MPBS were added to duplicate wells (100 µl/well) and incubated at RT for 1 h. […] Incubation was for 1 h at RT, followed by PBS washes as described. […] Phage ELISA. […] The wells were blocked with 200 µl of MPBS for 1.5 h at RT. Phage were added at 100 µl per well. Peptides were added as noted below and allowed to incubate at RT for 3 h. The plates were washed 3 times with PBST. A solution of 1:3000 diluted HRP:Anti-M13 conjugate at 100 µl per well of was added for 1 h. Following a repeat of the washing, 100 µl of ABTS was added for 15-30 min. […] Phage ELISA. […] Phage were added at 100 µl per well. Peptides were added as noted below and allowed to incubate at RT for 3 h. The plates were washed 3X with PBST. A solution of 1:3000 diluted HRP:Anti-M13 Conjugate at 100 µl per well of was added for 1 h. Following a repeat of the washing, 100 µl of ABTS was added for 15-30 min. The OD405 was measured using a SpectraMax 340 Microplate Spectrophotometer.

T1 sequence (P08069 31-736 limits assumed): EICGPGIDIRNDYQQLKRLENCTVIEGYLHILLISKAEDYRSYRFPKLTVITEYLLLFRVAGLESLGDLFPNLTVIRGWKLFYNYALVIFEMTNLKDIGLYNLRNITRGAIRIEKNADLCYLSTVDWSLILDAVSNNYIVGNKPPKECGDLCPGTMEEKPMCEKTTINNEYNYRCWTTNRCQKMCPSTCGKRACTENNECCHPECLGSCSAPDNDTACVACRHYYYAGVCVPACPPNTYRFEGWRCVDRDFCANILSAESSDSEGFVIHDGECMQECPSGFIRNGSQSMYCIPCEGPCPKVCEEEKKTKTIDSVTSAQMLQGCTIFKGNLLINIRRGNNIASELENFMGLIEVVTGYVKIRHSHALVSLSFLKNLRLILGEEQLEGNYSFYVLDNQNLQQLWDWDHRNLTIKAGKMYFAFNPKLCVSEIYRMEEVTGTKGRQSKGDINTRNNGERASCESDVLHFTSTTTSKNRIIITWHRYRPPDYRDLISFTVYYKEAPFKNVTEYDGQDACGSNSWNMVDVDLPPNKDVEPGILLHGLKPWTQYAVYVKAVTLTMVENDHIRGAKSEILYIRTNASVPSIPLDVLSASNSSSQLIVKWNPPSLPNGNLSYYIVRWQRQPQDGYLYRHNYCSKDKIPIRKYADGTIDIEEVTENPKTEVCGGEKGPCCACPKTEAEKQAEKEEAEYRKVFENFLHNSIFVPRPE
T1 sequence (P08069 741-935 limits assumed): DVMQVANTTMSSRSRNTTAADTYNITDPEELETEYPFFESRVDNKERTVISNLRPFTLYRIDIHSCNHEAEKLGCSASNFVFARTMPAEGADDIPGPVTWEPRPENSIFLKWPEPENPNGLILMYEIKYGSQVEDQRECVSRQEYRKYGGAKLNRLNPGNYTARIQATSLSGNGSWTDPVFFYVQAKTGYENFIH
T2 sequence (P06213 28-758 limits assumed): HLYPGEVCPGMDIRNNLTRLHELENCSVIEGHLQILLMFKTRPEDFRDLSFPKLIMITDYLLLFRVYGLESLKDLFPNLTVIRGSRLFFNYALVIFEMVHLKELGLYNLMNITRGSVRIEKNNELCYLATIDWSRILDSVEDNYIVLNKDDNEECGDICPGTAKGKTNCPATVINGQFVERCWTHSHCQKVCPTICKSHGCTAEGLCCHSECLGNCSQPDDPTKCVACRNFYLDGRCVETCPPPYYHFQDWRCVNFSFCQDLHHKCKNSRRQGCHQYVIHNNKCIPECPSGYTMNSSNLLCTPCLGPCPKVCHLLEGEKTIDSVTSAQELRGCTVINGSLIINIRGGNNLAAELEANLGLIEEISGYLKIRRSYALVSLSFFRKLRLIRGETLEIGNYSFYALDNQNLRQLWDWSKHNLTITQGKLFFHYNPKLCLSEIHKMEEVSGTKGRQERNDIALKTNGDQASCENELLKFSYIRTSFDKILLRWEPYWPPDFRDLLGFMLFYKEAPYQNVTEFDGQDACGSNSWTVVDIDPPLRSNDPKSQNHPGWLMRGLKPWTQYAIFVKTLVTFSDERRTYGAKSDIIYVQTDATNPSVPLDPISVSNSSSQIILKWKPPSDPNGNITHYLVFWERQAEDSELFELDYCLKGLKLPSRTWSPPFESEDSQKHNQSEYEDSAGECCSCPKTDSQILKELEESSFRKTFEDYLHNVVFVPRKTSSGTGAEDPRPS
T2 sequence (P06213 763-956 limits assumed): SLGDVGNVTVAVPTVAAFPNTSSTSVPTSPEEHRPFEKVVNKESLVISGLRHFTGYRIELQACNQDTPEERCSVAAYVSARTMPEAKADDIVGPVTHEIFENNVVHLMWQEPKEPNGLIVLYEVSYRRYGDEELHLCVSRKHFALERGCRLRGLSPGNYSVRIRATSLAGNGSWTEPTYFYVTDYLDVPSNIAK
Sequence of human IGF-1 receptor (HIGF-1R) (P08069 31-736 limits assumed): as the sequence (P08069 31-736 limits assumed) above
Sequence of human IGF-1 receptor (HIGF-1R) (P08069 741-1367 limits assumed): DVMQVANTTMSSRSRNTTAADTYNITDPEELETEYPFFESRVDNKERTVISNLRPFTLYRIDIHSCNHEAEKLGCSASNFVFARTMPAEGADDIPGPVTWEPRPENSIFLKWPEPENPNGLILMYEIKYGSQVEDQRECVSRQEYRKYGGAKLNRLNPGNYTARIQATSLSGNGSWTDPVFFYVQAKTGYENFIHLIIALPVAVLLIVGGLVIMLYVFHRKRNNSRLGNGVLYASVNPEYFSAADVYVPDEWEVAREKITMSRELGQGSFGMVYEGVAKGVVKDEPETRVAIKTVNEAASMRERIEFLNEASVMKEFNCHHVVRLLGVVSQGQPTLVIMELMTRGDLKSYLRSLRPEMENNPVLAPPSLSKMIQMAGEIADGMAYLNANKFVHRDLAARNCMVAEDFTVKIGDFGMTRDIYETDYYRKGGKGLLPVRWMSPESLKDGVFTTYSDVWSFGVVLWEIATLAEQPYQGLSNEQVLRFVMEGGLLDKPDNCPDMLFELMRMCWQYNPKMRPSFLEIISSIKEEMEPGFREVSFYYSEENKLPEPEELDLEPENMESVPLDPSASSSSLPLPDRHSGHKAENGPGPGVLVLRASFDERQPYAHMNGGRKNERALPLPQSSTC
T3 sequence (P06213 28-758 limits assumed): as the sequence (P06213 28-758 limits assumed) above
T3 sequence (P06213 763-956 limits assumed): as the sequence (P06213 763-956 limits assumed) above
T4 sequence (P06213 28-758 limits assumed): as the sequence (P06213 28-758 limits assumed) above
T4 sequence (P06213 763-1382 limits assumed): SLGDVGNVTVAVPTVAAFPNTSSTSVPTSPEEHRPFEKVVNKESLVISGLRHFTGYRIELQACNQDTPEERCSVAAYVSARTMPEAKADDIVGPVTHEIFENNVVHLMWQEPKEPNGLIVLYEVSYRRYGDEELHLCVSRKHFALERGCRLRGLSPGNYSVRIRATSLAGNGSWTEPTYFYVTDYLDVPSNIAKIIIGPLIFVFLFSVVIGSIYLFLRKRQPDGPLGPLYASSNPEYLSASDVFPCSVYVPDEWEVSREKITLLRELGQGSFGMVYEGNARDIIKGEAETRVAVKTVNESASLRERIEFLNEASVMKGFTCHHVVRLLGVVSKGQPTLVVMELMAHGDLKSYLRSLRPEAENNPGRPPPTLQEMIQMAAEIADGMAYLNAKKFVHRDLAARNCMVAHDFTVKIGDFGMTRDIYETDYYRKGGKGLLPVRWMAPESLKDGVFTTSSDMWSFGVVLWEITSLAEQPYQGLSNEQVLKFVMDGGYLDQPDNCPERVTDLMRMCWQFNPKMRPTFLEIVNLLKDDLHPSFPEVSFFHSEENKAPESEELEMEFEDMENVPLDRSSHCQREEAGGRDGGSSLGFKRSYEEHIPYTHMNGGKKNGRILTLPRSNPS

affinity for HIGF-1R [1]	Ratio ([1]; Kd HIGF1R / Kd HIR)	n (Hill plot) (IGF-1R [2])	binding of biotinylated peptide to IGF-1 R (IGF-1R [3])	n (Hill plot) (IR [4]; 20D3 Phage)	n (Hill plot) (IR [4]; H2 Phage)	Comments (precipitation) [5]	binding of biotinylated peptide to IR (Insulin receptor [6])	binding to IR when expressed as phage (IR [7])	effect on dissociation rate of 20E2 from IGF-1R (IGF-1R [8])	Result (RUs) (Insulin receptor [9])	Autophosph. Blot [10]	Absorbance Values sIGF-1R (IGF-1R [11])	Absorbance Values IR (IR [7]; 405 nm)	SMILES	Resp. (adipocytes)
high affinity	0.1	0.96	nM range	0.83	0.46	Precipitates	micromolar range	do not have detectable binding						CC(C)[C@H](NC(=O)[C@H](Cc1ccccc1)NC(=O)[C@H](Cc1c[nH]c2ccccc12)NC(=O)[C@H](CC(=O)O)NC(=O)[C@H](Cc1ccc(O)cc1)NC(=O)[C@H](Cc1ccccc1)NC(=O)[C@H](CC(N)=O)NC(=O)[C@H](C)NC(=O)[C@H](C)NC(=O)[C@H](CC(=O)O)NC(=O)CNC(=O)[C@H](CS)NC(=O)[C@@H]1CCCN1C(=O)[C@H](CCCNC(=N)N)NC(=O)[C@H](C)NC(=O)[C@H](Cc1c[nH]c2ccccc12)NC(=O)[C@H](CS)NC(=O)[C@H](CC(=O)O)NC(=O)[C@H](CCCCN)NC(=O)[C@H](Cc1ccc(O)cc1)NC(=O)[C@@H](N)CC(=O)O)C(=O)N[C@@H](CCC(N)=O)C(=O)N[C@@H](CCC(N)=O)C(=O)N[C@@H](C)C(=O)N[C@@H](CO)C(=O)N[C@@H](CCCCN)C(=O)N[C@@H](CCCCNC(=O)CCCC[C@@H]1SC[C@@H]2NC(=O)N[C@@H]21)C(N)=O [Clone C1]	0
						Precipitates			much slower dissociation rate	41.6 RUs	0	2.19	1.42	CC(C)C[C@H](NC(=O)[C@H](Cc1c[nH]c2ccccc12)NC(=O)[C@@H](N)CCCCN)C(=O)N[C@@H](CC(=O)O)C(=O)N[C@@H](CCC(N)=O)C(=O)N[C@@H](CCC(=O)O)C(=O)N[C@@H](Cc1c[nH]c2ccccc12)C(=O)N[C@@H](C)C(=O)N[C@@H](Cc1c[nH]c2ccccc12)C(=O)N[C@H](C(=O)N[C@@H](CCC(N)=O)C(=O)N[C@H]1CSSC[C@@H](C(=O)N2CCC[C@H]2C(=O)N[C@@H](CO)C(=O)N[C@@H](CCCCN)C(=O)N[C@@H](CCCCNC(=O)CCCC[C@@H]2SC[C@@H]3NC(=O)N[C@@H]32)C(N)=O)NC(=O)CNC(=O)[C@H](CCCNC(=N)N)NC(=O)CNC(=O)[C@H](Cc2ccc(O)cc2)NC(=O)[C@H](C(C)C)NC(=O)[C@H](CCC(=O)O)NC1=O)C(C)C [Clone D8] (H-KWLDQEWAWVQCEVYGRGCPSKK(Biotin)-NH2; disulfide 12-19 (inferred); N-terminus assumed)	-1

Reference: patent publication EP1383793B1 (priority 2000, dated 2001)
